This note sets out measurements from ChEMBL document CHEMBL1137694, “Predicting anti-HIV activity of 1,3,4-thiazolidinone derivatives: 3D-QSAR approach” (Eur J Med Chem, 2009).

The test system of the experiment is Human immunodeficiency virus. Briefly: Antiviral activity against HIV assessed as reduction in virus-induced cytopathic effect by XTT assay. Particulars: Human immunodeficiency virus 1, read-out: pEC50 (converted). The format is functional, organism-based.

On to `Cc1cc(C)nc(N2C(=O)CSC2c2c(F)cccc2F)c1` (configuration not stated), for which the EC50 was 58.9 nM.

On to `O=C1CSC(c2c(F)cccc2Cl)N1c1cccc(Br)n1` (configuration not stated), for which the EC50 is 63.9 nM.

For `Cc1cccc(N2C(=O)CSC2c2c(F)cccc2F)n1` (configuration not stated), the EC50 was 81.9 nM.

In the case of `O=C1CSC(c2c(F)cccc2F)N1c1cccnc1` (configuration not stated), the EC50 was 10.5 nM.

`O=C1CSC(c2c(F)cccc2F)N1c1cccc(Br)n1` (configuration not stated): the EC50 is 29.9 nM.

With `Cc1cc(C)nc(N2C(=O)CSC2c2c(Cl)cccc2Cl)c1` (configuration not stated), the EC50 was 89.8 nM.

In the case of `Cc1cc(O)nc(N2C(=O)CSC2c2c(Cl)cccc2Cl)n1` (configuration not stated), the EC50 is 30.4 nM.

Regarding `COc1cc(C)nc(N2C(=O)CSC2c2c(Cl)cccc2Cl)n1` (configuration not stated), the EC50 was 23.9 nM.

Take `COc1cc(C)nc(N2C(=O)CSC2c2c(F)cccc2Cl)n1` (configuration not stated): the EC50 was 55.9 nM.

With `Cc1cc(C)nc(N2C(=O)CSC2c2c(F)cccc2Cl)n1` (configuration not stated), the EC50 was 37.9 nM.

`Cc1cc(C)nc(N2C(=O)CSC2c2c(Cl)cccc2Cl)n1` (configuration not stated): the EC50 is 17 nM.

Regarding `Cc1cccc(N2C(=O)CSC2c2c(Cl)cccc2Cl)n1` (configuration not stated), the EC50 was 43.9 nM.

Regarding `CC1CC(C)C1N1C(=O)CSC1c1c(F)cccc1Cl` (configuration not stated), the EC50 is 85.7 nM.

In the case of `COc1cccc(OC)c1C1SCC(=O)N1c1cc(Br)ccn1` (configuration not stated), the EC50 was 44.9 nM.

Take `COc1cccc(OC)c1C1SCC(=O)N1c1cc(C)ccn1` (configuration not stated): the EC50 is 49.9 nM.

`CC1CCC1N1C(=O)CSC1c1c(Cl)cccc1Cl` (configuration not stated): the EC50 was 79.8 nM.

Take `Cc1cccnc1N1C(=O)CSC1c1c(F)cccc1F` (configuration not stated): the EC50 is 18.7 nM.

Turning to `COc1cccc(F)c1C1SCC(=O)N1c1cc(Br)ccn1` (configuration not stated), the EC50 was 33.9 nM.

In the case of `Cc1cccc(N2C(=S)CSC2c2c(Cl)cccc2Cl)n1` (configuration not stated), the EC50 is 86.9 nM.

Consider `Cc1cc(Cl)nc(N2C(=O)CSC2c2c(Cl)cccc2Cl)n1` (configuration not stated), for which the EC50 is 19.3 nM.

Regarding `COC1CCC1N1C(=O)CSC1c1c(F)cccc1F` (configuration not stated), the EC50 was 84.6 nM.

Regarding `Cc1ccnc(N2C(=O)CSC2c2c(Cl)cccc2Cl)n1` (configuration not stated), the EC50 was 43.9 nM.
